Results on one compound are retold here after patent publication US6800770B2, “Anti-spasticity of an eicosanoid analog” (Virginia Commonwealth University, priority 2002, dated 2004).

One assay addresses T1, human VR1 receptors (Homo sapiens, UniProt Q8NER1).
T1 construct: expressed in transfected cells; host or cells: HEK-hVR1 cells
In words: Enhancement of [Ca2+] via HEK-hVR1 cells. The class given is cell-based. The text has this: J. Pharm. Exp. Ther. 300: 984.

A further assay has as its target T2, CB1 (Rattus norvegicus, UniProt P20272).
T2 construct: from whole rat brain membranes; from tissue; host or cells: whole rat brain membranes
The class given is binding. The following applies: displacement of [3H]CP55940, whole rat brain membranes; means ± S.D., n=3; read-out: CB1 affinity (Ki).

Assay [1] relates to spasticity in Biozzi ABH mice. The following applies: 0.05 mg/kg i.v.; baseline vs 30 min after treatment.
Description: This was assessed to detect limb stiffness by analysis using a strain gauge (Baker et al 2000). The analogue signal from the strain gauge was amplified and digitally converted using an ComputerBoards Inc PCM-DAS16S/12 card (Amplicon, Brighton, UK). This was captured using Dacquire V10 software (D.Buckwell, Institute of Neurology, UK) and analyzed using Spike 2 software (Cambridge Electronics Design, UK). The hindlimbs were fully extended twice then moved to full flexion against the strain gauge. The mean of 4-8 individual readings per limb was taken for each time point. Results are expressed as means of forces of resistance to flexion (in Newtons) and SEM per group.
Statistical analysis was performed using Sigmastat 2.0 (Jandel/SPSS, USA) using one-way repeated measures analysis of variance (ANOVA) incorporating a pair-wise Student-Newman-Keuls (SNK) test. […] N=13 limbs analyzed from 8 spastic animals.
Arvanil treatment was carried out with and without pretreatment of the animals with SR141617A, SR144528 (known to inhibit CB1 and CB2 receptor function, respectively) and capsazepine, a known antagonist of the vanilloid recpetor (VR-1).

T1 sequence (Q8NER1 whole entry): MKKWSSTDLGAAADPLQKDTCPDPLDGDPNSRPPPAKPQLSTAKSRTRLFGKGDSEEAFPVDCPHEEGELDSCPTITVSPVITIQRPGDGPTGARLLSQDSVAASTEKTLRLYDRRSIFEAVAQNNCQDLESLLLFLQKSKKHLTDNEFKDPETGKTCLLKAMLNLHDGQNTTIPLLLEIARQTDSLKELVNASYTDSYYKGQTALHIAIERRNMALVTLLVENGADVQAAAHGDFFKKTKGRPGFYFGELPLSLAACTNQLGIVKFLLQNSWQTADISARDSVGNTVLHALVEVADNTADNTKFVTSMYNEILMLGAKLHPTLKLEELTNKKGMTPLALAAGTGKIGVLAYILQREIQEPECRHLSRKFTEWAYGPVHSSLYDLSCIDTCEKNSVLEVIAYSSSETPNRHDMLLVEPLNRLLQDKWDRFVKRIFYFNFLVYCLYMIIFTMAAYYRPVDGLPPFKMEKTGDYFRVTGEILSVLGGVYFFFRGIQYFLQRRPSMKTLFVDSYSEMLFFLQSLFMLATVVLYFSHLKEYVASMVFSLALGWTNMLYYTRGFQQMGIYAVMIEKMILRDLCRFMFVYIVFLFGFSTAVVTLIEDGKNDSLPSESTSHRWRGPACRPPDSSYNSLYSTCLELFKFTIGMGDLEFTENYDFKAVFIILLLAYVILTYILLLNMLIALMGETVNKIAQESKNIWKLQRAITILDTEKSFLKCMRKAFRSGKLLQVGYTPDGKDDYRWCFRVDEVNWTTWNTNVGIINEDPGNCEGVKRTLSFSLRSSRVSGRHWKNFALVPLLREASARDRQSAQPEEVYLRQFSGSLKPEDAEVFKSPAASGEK
T2 sequence (P20272 whole entry): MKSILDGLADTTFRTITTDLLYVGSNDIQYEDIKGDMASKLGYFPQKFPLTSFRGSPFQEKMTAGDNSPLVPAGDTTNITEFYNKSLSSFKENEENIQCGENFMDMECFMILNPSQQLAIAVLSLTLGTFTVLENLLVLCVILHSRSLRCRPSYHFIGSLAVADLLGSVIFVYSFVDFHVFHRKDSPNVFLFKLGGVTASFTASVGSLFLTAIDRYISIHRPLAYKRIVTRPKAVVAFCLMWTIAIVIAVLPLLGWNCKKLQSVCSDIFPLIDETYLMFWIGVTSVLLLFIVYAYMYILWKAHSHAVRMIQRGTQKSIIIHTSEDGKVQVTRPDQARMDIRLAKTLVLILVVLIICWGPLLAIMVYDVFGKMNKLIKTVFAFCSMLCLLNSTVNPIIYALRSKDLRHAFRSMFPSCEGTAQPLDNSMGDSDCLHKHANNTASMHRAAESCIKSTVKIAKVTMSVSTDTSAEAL

`CCCCC/C=C\C/C=C\C/C=C\C/C=C\CCCC(=O)N(Cc1ccc(O)c(Cl)c1)Cc1ccc(O)c(Cl)c1` [O-2093, N,N-Di-3-chloro-4-hydroxybenzylarachadonamide]: the Emax on human VR1 receptors (in parentheses in the hVR1 potency column, read-out: hVR1 efficacy (maximal effect as percentage of the effect of 4 μM capsaicin)) is 26.9%. Further, at human VR1 receptors (read-out: hVR1 potency (EC50), means ± S.D., n=3), the EC50 is over 50 µM. On CB1, the Ki stood at 1.29 ± 0.14 µM. Also, in assay [1], the “decrease in resistance to flexion” value is listed as about 35%.

What is called EC50 is the concentration at which the effect is half-maximal. By Ki is commonly meant the dissociation constant of the complex between target and ligand, obtained from inhibition or displacement.
